In patent US20250362302A1, “INTRACELLULAR LIGATION OF PHOTOCATALYSTS FOR PHOTO-RESPONSIVE, PROBE-MEDIATED PROTEIN LABELING” (Seed Therapeutics US, Inc., priority 2022, published 2025):

Experiments:
PI3 Kinase P110α = assay: Photo-responsive labeling within live cells, HALO-tag immunoprecipitation, Western blot with Anti-PI3k antibody; format: cell-based, human; settings: labeling agent 250 μM, photocatalyst 10 μM, irradiation 450 nm 10 minutes, cell line 021
Protocol: (§1) Initially, reagents were prepared. An Ir—Cl photocatalyst master stock solution was prepared at 10 mM in 100% DMSO. The specific Ir—Cl photocatalyst used in this example was the photocatalyst prepared in accordance with Example 2. To create a working solution for the Ir—Cl catalyst, a portion of the Ir—Cl catalyst master stock solution was diluted in 1×DPBS, such that the final Ir—Cl catalyst concentration was 10 μM and the DMSO concentration was 0.1%. A labeling agent master stock was also prepared, having a 25 mM concentration in 100% DMSO. The particular labeling agent used was the one prepared in accordance with Example 1. To create a working solution for the labeling agent, a portion of the labeling agent master stock solution was diluted in 1×DPBS, such that the final concentration of labeling agent was 250 μM and the DMSO concentration was 1%.
(§2) A human KRAS (G12DHaloTag®/+) cell line (HD-103-021, Horizon Discovery) with protein reporter was grown to 80-90% confluence. Cells were harvested and pelleted down by centrifuging at 1000 g, for 5 minutes at 4° C. (Eppendorf Centrifuge 5427 R). Supernatant was discarded and the cell pellet was resuspended in ice cold 1×DPBS (Gibco™) and mixed. Subsequently, cells were again pelleted down by centrifuging at 1000 g, for 5 minutes at 4° C. Supernatant was discarded and fresh ice cold 1×DPBS was added to the pellet and mixed. […]

SOS1 = assay: Photo-responsive labeling within live cells, streptavidin bead immunoprecipitation of biotinylated proteins, Western blot with anti-SOS1 antibody; format: cell-based, human; settings: KRAS (G12DHaloTag/+) protein reporter cells with photocatalyst, labeling partner and irradiation; no distinct band in control cells HD-103-037 and HD-PAR-006
Protocol: as §1, §2

Halotag-KRAS(G12D) = assay: Halotag chaser assay (TAMRA-Cl) for Ir-photocatalyst cell permeability, fluorescent Western blot; format: cell-based, human
Protocol: Photo-responsive labeling within cells was carried out as described similar to the procedure as described in Example 11. An Ir-photocatalyst master stock solution was prepared at 10 mM or 5 mM in 100% DMSO. KRAS (G12DHaloTag®/+) cells (HD-103-021, Horizon Discovery) were grown to 90% confluency in 6-well cell culture dishes using phenol-free RPMI1640 media (Gibco™). […] The cells were incubated for 1 or 2 hours at 37° C. The media was then aspirated and cells were gently washed twice with 2 mL fresh RPMI 1640, with an incubation of 10 minutes per wash at 37° C. TAMRA-Cl fluorescent dye (Promega, 68251) was diluted with OptiMEM to a 5 μM working solution. 0.8 mL of the working dye solution was added to the cells, and allowed to incubate for 15 minutes at 37° C. The cells were gently washed twice with 2 mL cold DPBS, aspirated, then added 200 μL RIPA supplemented with protease-phosphatase inhibitor (Halt™ Protease and Phosphatase Inhibitor Cocktail (100×)) and mixed briefly. The cell lysate was collected into 1.5 mL tubes. The cell lysate was sonicated using a probe-sonicator (SONICS vibra-cell Fisher Scientific) with 15 s on, 10 s off, at 30% amplitude for 3 cycles. The cell lysate was centrifuged at 18,000 g at 4° C. for 20 minutes. […] Cell lysates were processed and analyzed by fluorescent Western blot with anti-TAMRA and anti-β-Actin (for normalization) antibodies. […]

[1] = tested on: bovine serum albumin (BSA); assay: Catalyst-dependent biotinylation of bovine serum albumin, fluorescent Western blot with anti-biotin antibody; format: biochemical; settings: labeling reagent WH8 100 uM, BSA 10 uM, catalyst 5 μM and 10 μM, 5 minutes irradiation at 450 nm; no band without irradiation
Protocol: Photocatalyst was combined with diazirine labeling compounds 8 or 9 and BSA in DPBS to yield reaction mixtures with 200 uL total solution volume. BSA concentration was 10 uM; diazirine labeling compound was fixed as 100 uM; the final catalyst concentration was set as 5 uM and 10 uM respectively. These samples were then either placed in the dark or irradiated with visible (450 nm) light in a M2 photoreactor for 5 minutes at 100% intensity. 60 uL samples were then removed, combined with 20 μL of 4× reducing SDS-Laemmli buffer (with 1:10 1 M DTT), mixed and heated at 95° C. for 5 minutes. 15 μL of each sample was then analyzed by Fluorescent western blot.
The sample was loaded into a 4-20% Tris-Glycine gel (Bio-Rad). Gel was run at 120V for 80 minutes or until the dye front reaches the end of the gel. Proteins were transferred from gel to nitrocellulose membrane using the iBlot 2 semi-dry Transfer apparatus. The membrane was used to detect total protein for normalization which follow the manufacturer's manual (Revert™ 700 Total Protein Stain, LI-COR). After that, the membrane rinsed once with TBST and blocked with h Intercept® Blocking Buffer for 1 hour at RT with gentle shaking. After blocking, membrane was washed with TBST and requisite antibody was added (1:1000) and kept for overnight at 4° C. on a shaker. […]

ikaros (IKZF1) = assay: Western blot of IKZF1 in lysates of HALO.CRBN Jurkat cells exposed to pomalidomide or lenalidomide; format: cell-based; settings: lanes, HALO.CRBN Jurkat cell lysates, compared with control or 1 μM pomalidomide lanes
From the text: A stable cell line, using Jurkat cells, was created where native cereblon (CRBN) was knocked out and a fusion of HaloTag protein and CRBN was expressed (referred to herein as “the HALO.CRBN Jurkat cell line”). […] The gel was stained using mouse anti-IKZF1 antibody. The dilution was 1:1000 and the exposure was about 10 seconds.

| Structure (SMILES) | PI3 Kinase P110α band after HALO-tag IP (FIG. 4A) (PI3 Kinase P110α) | SOS1 band after streptavidin IP (FIG. 5F) (SOS1) | binding to the Halotag (Halo-chaser assay, anti-TAMRA) (Halotag-KRAS(G12D); FIG. 21A, 1 hour treatment, 5 μM and 10 μM photocatalyst, KRAS (G12DHaloTag/+) cells, compared to DMSO control) | binding to the Halotag (Halo-chaser assay, anti-TAMRA) (Halotag-KRAS(G12D); FIG. 21B, 5 μM photocatalyst) | biotinylation of BSA (anti-biotin fluorescent Western blot) [1] | IKZF1 level in Western blot (anti-IKZF1) (ikaros (IKZF1)) |
| --- | --- | --- | --- | --- | --- | --- |
| Cc1ccnc(-c2cc(CCC(=O)NCCOCCOCCOCCOCCCCCCCl)ccn2)c1.Fc1cc(F)c(-c2ccc(C(F)(F)F)cn2)[c]([Ir+][c]2cc(F)cc(F)c2-c2ccc(C(F)(F)F)cn2)c1 [IR1] | distinct band of PI3 Kinase P110α | distinct SOS1 band observed | a little less binding to the Halo tag | majority binding | – | – |
| [N-]=[N+]=Nc1ccc(C(=O)NCCOCCOCCOCCNC(=O)CCCC[C@@H]2SC[C@@H]3NC(=O)N[C@@H]32)cc1 [WH8, 4-azido-N-(13-oxo-17-((3aS,4S,6aR)-2-oxohexahydro-1H-thieno[3,4-d]imidazol-4-yl)-3,6,9-trioxa-12-azaheptadecyl)benzamide] | distinct band of PI3 Kinase P110α | distinct SOS1 band observed | – | – | biotinylated BSA bands | – |
| Nc1cccc2c1C(=O)N(C1CCC(=O)NC1=O)C2=O (centres unmarked) [pomalidomide] | – | – | – | – | – | observably less IKZF1 |
